Assay results published in PMC8344021, “Discovery of Small Molecule Bak Activator for Lung Cancer Therapy” (Theranostics, 2021).
Entries after “also recorded” stand apart in the source; their conditions may differ.

Columns and labels:
[1] = tested on: mitochondria isolated from A549 cells; assay: Cyt c release from isolated mitochondria; assay type: biochemical, human; settings: 1 μM, 30 min, 30 °C
Experimental: Figure 3 Bak is required for BKA-073 induction of mitochondrial priming, Cyt c release and apoptotic cell death. (A) Levels of Bak and Bax were analyzed by Western blot in parental, Bak ^-/-, Bax ^-/- or Bax/Bak double-knockout (DKO) A549 cells. (B-C) Parental, Bak ^-/-, Bax ^-/- or DKO A549 cells were treated with BKA-073 (1μM) for 16h or 72h, followed by analysis of dynamic BH3 profiling (B) or apoptotic cell death (C), respectively. Data represent the mean ± SD, n = 3 per group. ***P < 0.001, by 2-tailed t test. (D) Parental, Bak ^-/-, Bax ^-/- or DKO A549 cells were treated with BKA-073 (1μM) for 24 h. Mitochondrial and cytosolic fractions were isolated. Levels of Cyt c in these two fractions were analyzed by western blot. (E) Mitochondria were isolated from parental, Bak ^-/-, Bax ^-/- or DKO A549 cells. The isolated mitochondria were then treated with BKA-073 (1μM) in mitochondrial buffer for 30 min at 30 °C. After centrifugation, Cyt c in supernatant fraction (i.e. Cyt c release) and Cyt c in mitochondrial pellet were analyzed by western blot.
To further test whether Bak is required for BKA-073 induction of Cyt c release, A549 parental, Bak^-/-, Bax^-/- and DKO cells were treated with BKA-073 (1 μM) for 24h, followed by analysis of Cyt c release from mitochondria. […] After centrifugation at 13000 g for 5 min, Cyt c in the supernatant (i.e., Cyt c release) was analyzed by Western blot.

[2] = tested on: Bak oligomerization in A549 cells; assay: Bak oligomerization by cross-linking with BMH; assay type: cell-based, human; settings: 1μM, 24h, mitochondrial fraction, Western blot
Experimental: Bak oligomerization was analyzed as described. Briefly, 10 mM Bis (maleimido) hexane (BMH) was added to the mitochondrial fraction dissolved in conjugation buffer (PBS, pH7.2) and 5mM EDTA was added for crosslinking between sulfhydryl groups of Bak proteins. The reaction mixture was incubated for 1h at room temperature. The reaction was stopped by adding quench solution (1M DTT) for 15min at room temperature. The reaction product was subjected to SDS-PAGE gel and analyzed by Western blot using a Bak antibody.
A pivotal step in the apoptosis process is the oligomerization of Bak, [44]. To assess whether BKA-073 affects the ability of Bak to form oligomers in the mitochondrial membrane, a cross-linking study with Bis (maleimido) hexane (BMH) was carried out. […] These findings indicate that BKA-073 can activate Bak through its oligomerization in mitochondria. It is known that formation of Bak oligomers in mitochondria promotes cytochrome c (Cyt c) release to induce apoptosis, [46].

[3] = tested on: Cyt c release in A549 cells; assay: Cyt c release from mitochondria in cells (subcellular fractionation, Western blot); assay type: cell-based, human; settings: 24h
Experimental: To further test whether Bak is required for BKA-073 induction of Cyt c release, A549 parental, Bak^-/-, Bax^-/- and DKO cells were treated with BKA-073 (1 μM) for 24h, followed by analysis of Cyt c release from mitochondria. […] To further test whether BKA-073 directly induces Cyt c release from isolated mitochondria in a Bak- but not Bax-dependent fashion, purified mitochondria were isolated from A549 parental, Bak^-/-, Bax^-/- and DKO cells. The isolated mitochondria were treated with BKA-073 (1 μM) for 30 min at 30 °C. After centrifugation at 13000 g for 5 min, Cyt c in the supernatant (i.e., Cyt c release) was analyzed by Western blot. […]
Bak proteins was eluted with buffer B (20 mM Tris, pH 8.0, 120 mM NaCl, 300 mM imidazole, 10% glycerol with protease inhibitor). The elution peak of interest was checked by SDS -PAGE electrophoresis. The purified mouse Bak protein was dialyzed with buffer A . […]
Subcellular fractionation
Cells (2 ×107) were washed with cold 1× PBS and resuspended in isotonic mitochondrial buffer (210 mM mannitol, 70 mM sucrose, 1 mM EGTA, 10 mM Hepes, pH 7.5) containing 10% protease inhibitor mixture set I, homogenized with a polytron homogenizer, and then centrifuged at 1000 × g for 5 min to remove the nuclei and unbroken cells. The supernatant was centrifuged at 13,000 × g for 10 min to pellet mitochondria. […] Cyt c was analyzed

`COc1ccc2nc3ccccc3c(NCCNCC(C)O)c2c1` (centres unmarked) [BKA-073] was tested, and the “Cyt c release from isolated mitochondria” value ([1]; mitochondria from A549 Bax-/- cells) was “induced Cyt c release”, the “Cyt c release from isolated mitochondria” value ([1]; mitochondria from A549 parental cells) was “induced Cyt c release” and the Bak oligomerization [2] was “facilitated the formation of Bak dimers and trimers”. For the same compound, the Cyt c release ([3]; A549 Bax-/- cells, 1 μM) was “Cyt c release was observed” and the Cyt c release ([3]; A549 parental cells) was “promoted Cyt c release from mitochondria; also recorded: Cyt c release was observed”.
